Test results: publication PMC8107365, “Overlapping Properties of the Short Membrane-Active Peptide BP100 With (i) Polycationic TAT and (ii) α-helical Magainin Family Peptides” (Frontiers in Cellular and Infection Microbiology, 2021)
Values after ≈ are worked out from the molar mass of the structure shown. Values joined by “and” are separate entries in the source; they are usually repeats but may differ in a detail not shown here. Identical values can stand only once. Like-named read-outs stand apart in the source and are kept apart here. Marks after values point to notes of the source that are not given here. Where a SMILES comes first, the peptide text is derived from it.

How the values were obtained:
[1] = tested on: Enterobacter helveticus (DSM 18396)
Method: (§1) The antimicrobial activity of BP100 was tested using a standard MIC dilution assay, as previously described ([Strandberg et al., 2007]; [Wadhwani et al., 2012a]). Two Gram-negative strains, Escherichia coli (DSM 498) (K12) and Enterobacter helveticus (DSM 18396), and one Gram-positive strain, Kocuria rhizophila (DSM 348) were used. Bacteria were grown in Luria-Bertani medium at 37°C and 230 rpm overnight, and diluted in 1% trypticase soy broth (TSB). Peptide stock solutions (1024 μg/mL) were prepared in water. Microtiter plates (96 wells of 100 μl) were filled with 50 μl of 1% TSB, and serial 2-fold dilutions of peptides were arranged in columns. The two final rows of each plate remained without peptide, so that the penultimate data point served as the positive control (no peptide) and the final one as the negative control (not inoculated). To each well (except for the final row of each plate), an aliquot of 50 µl of a bacterial suspension containing 10^6 colony-forming units/mL was added to obtain a final volume of 100 µL. Antibacterial activities are expressed as the MIC and correspond to the lowest concentration of peptide, in micromolar units, at which no bacterial growth was detected after overnight incubation at 37°C. The tests were made in triplicate for each peptide, and the value shown is the lowest concentration where at least for two repetitions the growth was inhibited.

[2] = tested on: Kocuria rhizophila (DSM 348)
Method: as §1

[3] = tested on: Escherichia coli (DSM 498) (K12)
Method: as §1

HeLa cells = assay: Toxicity against HeLa cells (calcein AM, fluorescence microscopy); type: cell-based, human; conditions: for Toxicity (HeLa): overview Figure 5; for HeLa cells: lowest tested concentration where dead HeLa cells were observed: peptides N-terminally labeled with Fluka 630 red, 30 min, 37°C, HKR buffer pH 7.4, calcein AM, confocal microscopy
Method: HeLa TK A549 cells (from DSMZ, Braunschweig, Germany) were cultivated in minimal essential medium (MEM) with 10% fetal calf serum (FCS) (PAA, Cöble, Germany), and Glutamax (Invitrogen, Karlsruhe, Germany), without antibiotics. Cell density after incubation over night was 30000 cells/chamber in 300 µL medium. For experiments, the medium was removed and cells incubated with peptides at the respective concentration in HEPES Krebs Ringer (HKR) buffer, which consists of 5 mM HEPES, 137 mM NaCl, 2.68 mM KCl, 2.05 mM MgCl2, 1.8 mM CaCl2, and 5.55 mM glucose, pH 7.4. After 30 min (37°C, 5% CO2) cells were washed with HKR buffer, and the behavior of cells at variable peptide concentration examined. A confocal microscope type SP 5 from Leica was used for fluorescence microscopy. The 488 nm line of an argon laser was used for excitation of calcein and the 633 nm line of a helium-neon laser was used for excitation of Fluka 630 red. For kinetic experiments, cells were washed after incubation for 30 minutes and placed into MEM medium at 37°C, and studied after 1, 2, 4, 8 and 24 h. Five minutes before microscopy, calcein AM (Fluka, Buchs, Switzerland) was added to a final concentration of 1 nM to examine cell viability. To avoid artifacts, cells were not fixed.

human erythrocytes = assay: Hemolysis assay; conditions: for HC10, concentration that induced 10% hemolysis: human erythrocytes 0.25% (v/v), Tris buffer pH 7.6/DMSO, 37°C, 20 min, absorbance 540 nm, relative to Triton X-100, up to 100 µM peptide
Method: The hemolytic effect of the peptides was tested on human erythrocytes as previously described ([Strandberg et al., 2007]). Citrate phosphate dextrose-stabilized blood bags with erythrocyte suspensions were obtained from the blood bank of the local municipal hospital (Karlsruhe, Germany). Erythrocytes were washed twice with 9-fold excess of Tris buffer (172 mM, pH 7.6 at 0°C) followed by centrifugation at 600 g for 10 min at 4°C, and kept on ice in between. After the second wash, the erythrocytes were transferred from the sediment to a fresh tube with the same precooled buffer to be diluted to about 10% (v/v) hematocrit, giving the stock cell suspension, which was kept on ice. […] The stock cell suspension was further diluted to about 0.5% (v/v). After preincubating for 3 min, 200 μL of the resulting erythrocyte dilution was transferred to each tube of the corresponding peptide serial dilution, to a final concentration of 0.25% (v/v). For each dilution series, zero hemolysis was obtained by adding the erythrocytes to Tris buffer (pH 7.6 at 37°C)/dimethylsulfoxide (9:1 v/v) and measuring the background lysis in the absence of peptide. For 100% hemolysis, the erythrocytes were added to 0.2% of Triton X-100 (Sigma, Germany) in the same buffer, giving a final concentration of 0.1% Triton X-100. Incubation was performed at 37°C for 20 min with gentle shaking. The tubes were centrifuged at 20 000 g for 5 min to pellet the cells, and the absorbance at 540 nm was recorded against water. The percentage lysis was then calculated relative to 0% lysis with buffer and 100% lysis by Triton X-100. The absorbance measurement was repeated three times, and the averaged values are used.

tested bacteria = conditions: E. coli DSM 498, E. helveticus, K. rhizophila
Method: as §1

erythrocytes = conditions: ref Sabatier et al., 1991; Wang et al., 2010; cited from earlier work
Description: Considering that Table 2 (and Figure 2 ) gives the percent of hemolysis as a function of concentration in µM, it can be noted that BP100 c ...

[4] = ref Thorén et al., 2005; cited from earlier work
Description: Another kind of action of membrane-bound peptides is to facilitate fusion between membranes of vesicles or cells. We find here that BP100 has strong fusogenic activity ( Figure 4 ), even higher than the dedicated fusion peptide, FP23 from HIV-1, except in uncharged POPC/CHOL. […] These fusion results fit well with a previous comparison of different AMPs and CPPs ([Wadhwani et al., 2012b]). Obvio ...

[5] = serial 2-fold dilution, 1% TSB, overnight 37°C, triplicate, lowest concentration inhibiting growth in at least two repetitions

Molecule | MIC E. helveticus [1, 5] [µM] | MIC K. rhizophila [2, 5] [µM] | MIC E. coli (DSM 498) [3, 5] | Toxicity (HeLa) (HeLa cells) | HeLa cells: lowest tested concentration where dead HeLa cells were observed (HeLa cells) | HC10, concentration that induced 10% hemolysis (human erythrocytes) | Hemolysis (human erythrocytes; overview Figure 5) | MIC E. helveticus ([1]; DSM 18396) [µM] | MIC K. rhizophila ([2]; DSM 348) [µM] | MIC E. coli (DSM 498) ([3]; DSM 498) [µM] | Hemolysis (human erythrocytes) | MIC over the three tested strains (tested bacteria) | Hemolytic activity, in words (human erythrocytes; peptide concentrations up to 100 µM) | Hemolytic activity, in words (literature) (erythrocytes) | Lipid mixing, in words [4]
CC[C@H](C)[C@H](NC(=O)[C@H](CCCCN)NC(=O)[C@H](CCCCN)NC(=O)[C@H](Cc1ccccc1)NC(=O)[C@H](CC(C)C)NC(=O)[C@H](CCCCN)NC(=O)[C@@H](N)CCCCN)C(=O)N[C@@H](CC(C)C)C(=O)N[C@@H](CCCCN)C(=O)N[C@@H](Cc1ccc(O)cc1)C(=O)N[C@@H](CC(C)C)C(N)=O [BP100] | 6.3 (≈ 8.95 µg/mL) | 3.2 (≈ 4.55 µg/mL) | 6.3 µM (≈ 8.95 µg/mL) | +++ | 4 µM | 45 µM | ++ |  |  |  |  |  |  |  | 
CC[C@H](C)[C@H](NC(=O)CN)C(=O)NCC(=O)N[C@@H](CCCCN)C(=O)N[C@@H](Cc1ccccc1)C(=O)N[C@@H](CC(C)C)C(=O)N[C@@H](Cc1c[nH]cn1)C(=O)N[C@@H](CO)C(=O)N[C@@H](C)C(=O)N[C@@H](CCCCN)C(=O)N[C@@H](CCCCN)C(=O)N[C@@H](Cc1ccccc1)C(=O)NCC(=O)N[C@@H](CCCCN)C(=O)N[C@@H](C)C(=O)N[C@@H](Cc1ccccc1)C(=O)N[C@H](C(=O)NCC(=O)N[C@@H](CCC(=O)O)C(=O)N[C@H](C(=O)N[C@@H](CCSC)C(=O)N[C@@H](CC(N)=O)C(=O)N[C@@H](CO)C(=O)O)[C@@H](C)CC)C(C)C [MAG2, magainin 2] (H-GIGKFLHSAKKFGKAFVGEIMNS-OH) |  |  |  | + | 20 µM |  |  |  |  |  |  |  |  |  | 
CC(C)C[C@H](NC(=O)[C@H](C)NC(=O)[C@H](CCCCN)NC(=O)[C@H](CC(C)C)NC(=O)[C@H](C)NC(=O)[C@H](CC(C)C)NC(=O)[C@H](CCCCN)NC(=O)[C@H](CC(C)C)NC(=O)[C@H](C)NC(=O)[C@H](CC(C)C)NC(=O)[C@@H](N)CCCCN)C(=O)N[C@@H](CCCCN)C(=O)N[C@@H](C)C(=O)N[C@@H](C)C(=O)N[C@@H](CC(C)C)C(=O)N[C@@H](CCCCN)C(=O)N[C@@H](CC(C)C)C(=O)N[C@@H](C)C(N)=O [MAP] | 3.2 (≈ 6 µg/mL) | 0.4 (≈ 0.751 µg/mL) | 25 µM (≈ 46.9 µg/mL) | +++ | 2 µM | 2 µM | +++ |  |  |  |  |  |  |  | 
CC[C@H](C)[C@H](NC(=O)[C@H](CCCCN)NC(=O)CNC(=O)[C@H](C)NC(=O)[C@@H](NC(=O)[C@H](CCCCN)NC(=O)[C@H](C)NC(=O)[C@@H](NC(=O)[C@H](CCCCN)NC(=O)CNC(=O)[C@H](C)NC(=O)[C@@H](NC(=O)[C@H](CCCCN)NC(=O)[C@H](C)NC(=O)[C@@H](NC(=O)[C@H](CCCCN)NC(=O)CNC(=O)[C@H](C)NC(=O)[C@@H](NC(=O)[C@@H](N)CCCCN)[C@@H](C)CC)[C@@H](C)CC)[C@@H](C)CC)[C@@H](C)CC)[C@@H](C)CC)C(=O)N[C@@H](C)C(N)=O [MSI-103] (H-KIAGKIAKIAGKIAKIAGKIA-NH2) |  |  |  | +++ |  |  |  | 1.6 (≈ 3.3 µg/mL) | 0.8 (≈ 1.65 µg/mL) | 12.5 (≈ 25.8 µg/mL) | ++ |  |  |  | 
CC[C@H](C)[C@H](NC(=O)[C@H](C)NC(=O)CNC(=O)[C@H](C)NC(=O)[C@H](CCCCN)NC(=O)[C@H](CO)NC(=O)[C@H](C)NC(=O)[C@H](CCSC)NC(=O)CN)C(=O)N[C@@H](C)C(=O)NCC(=O)N[C@@H](CCCCN)C(=O)N[C@H](C(=O)N[C@@H](C)C(=O)N[C@@H](CCCCN)C(=O)N[C@H](C(=O)N[C@@H](C)C(=O)N[C@@H](CC(C)C)C(=O)N[C@@H](CCCCN)C(=O)N[C@@H](C)C(=O)N[C@@H](CC(C)C)C(N)=O)C(C)C)[C@@H](C)CC [PGLa] (H-GMASKAGAIAGKIAKVALKAL-NH2) | 16.3 (≈ 32.1 µg/mL) | 4.1 (≈ 8.07 µg/mL) | 25 µM (≈ 49.2 µg/mL) | + | 10 µM | 16 µM | ++ |  |  |  |  |  |  |  | 
N=C(N)NCCC[C@H](NC(=O)CN)C(=O)N[C@@H](CCCCN)C(=O)N[C@@H](CCCCN)C(=O)N[C@@H](CCCNC(=N)N)C(=O)N[C@@H](CCCNC(=N)N)C(=O)N[C@@H](CCC(N)=O)C(=O)N[C@@H](CCCNC(=N)N)C(=O)N[C@@H](CCCNC(=N)N)C(=O)N[C@@H](CCCNC(=N)N)C(=O)N1CCC[C@H]1C(=O)N1CCC[C@H]1C(=O)N[C@@H](CCC(N)=O)C(=O)O [TAT] | 500 (≈ 860 µg/mL) | 125 (≈ 215 µg/mL) | >500 ^e μM | - | > 20 μM and > 20 ^e μM | >>100 μM | - |  |  |  |  | at least 125 µM | hardly any hemolytic activity | did not show any hemolytic activity | 
Ac-GRKKRRQRRRPWQ-NH2 [TATP59W] |  |  |  |  |  |  |  |  |  |  |  |  |  |  | high extent of lipid mixing
